Measurements taken from publication PMC8781869, “Thioester-Containing Benzoate Derivatives with α-Glucosidase Inhibitory Activity from the Deep-Sea-Derived Fungus Talaromyces indigoticus FS688” (Marine Drugs, 2021).

Columns and labels:
[1] = tested on: α-glucosidase from Saccharomyces cerevisiae; assay: α-Glucosidase inhibition assay (pNPG substrate, absorbance at 405 nm); assay type: biochemical; conditions: for α-glucosidase inhibitory effect at a single concentration: at a concentration of 100 μM; for IC50: in vitro, PBS pH 7.0, 37 °C, triplicate, read-out: α-Glucosidase inhibitory activity IC50
Method: An […] were used to measure the circular dichroism (ECD) and the UV spectra, respectively. ECD and UV spectra were recorded at the range of 200–400 nm under N2 gas […]. IR spectra were recorded on a Shimadzu IR Affinity-1 spectrophotometer. All the NMR spectra were measured on a 600 MHz Bruker Avance-III HD spectrometer and the tetramethylsilane was used as an internal standard. HR-ESI-MS was measured on a Bruker maXis high-resolution mass spectrometer. A Shimadzu LC-20 AT (equipped with an SPD-M20A PDA detector) was used for the preparative separations. The ACE 5 PFP-C18 column (250 × 10.0 mm, 5 μm, 12 nm) was used for semi-preparative HPLC separation and the CHIRAL-MD (2)-RH column (250 × 10.0 mm, 5 μm) was used for chiral separation (Guangzhou FLM Scientific Instrument Co., Ltd, Guangzhou, China). The commercial silica gel (SiO2; 200–300 mesh; Qingdao Marine Chemical Plant, Qingdao, China) and Sephadex LH-20 gel (GE Healthcare Bio-Sciences ABSE-751, Uppsala, Sweden) were used for column chromatography. All solvents were of analytical grade (Guangzhou Chemical Regents Company, Ltd., Guangzhou, China). The natural sea salt was purchased from Guangdong Yueyan saltern. The α-glucosidase from Saccharomyces cerevisiae and p-nitrophenyl-α-d-glucopyranoside (p-NPG) used in bioassays were purchased from Sigma-Aldrich (St. Louis, MO, USA).
The method used for the α-glucosidase inhibitory activity assay was based on previously reported literature with slight modification. The pre-reaction mixture consisted of 130 μL of PBS (100 mM, pH 7.0), 30 μL of enzyme (1 U/mL) and 0.5 μL of the test compounds at different concentrations. After incubation at 37 °C for 10 min, 40 μL of pNPG was added and the mixture was further incubated at 37 °C for 15 min. Finally, the absorbance was measured at 405 nm on an automatic microplate reader. […] All experiments were carried out in triplicate.

α-glucosidase = tested on: α-glucosidase; design: method as in PMID 24955555; conditions: previously reported screening; cited from earlier work

For COc1c(C)c(C(=O)SC)c(O)c2c1OC(C(C)(C)O)C2 (stereo not drawn) [Compound 1, Eurothiocin C], the “α-glucosidase inhibitory effect at a single concentration” value (“α-glucosidase inhibitory effect” below) [1] was “weak inhibitory effects”.
CSC(=O)c1c(C)cc2c(c1O)CC(C(C)(C)OC1OC(CO)C(O)C(O)C1O)O2 (stereo not drawn) [Compound 2, Eurothiocin D] gave an IC50 [1] of 5.4 µM.
For CSC(=O)c1c(C)cc(O)c(CC=C(C)C)c1O [Compound 3, Eurothiocin E], the “α-glucosidase inhibitory effect” value [1] was “weak inhibitory effects” and the IC50 [1] was > 100 µM.
With CSC(=O)c1c(C)cc(O)c(C/C=C(\C)CO)c1O [Compound 4, Eurothiocin F] the IC50 [1] was 33.6 µM.
CSC(=O)c1c(C)cc(O)c(CCC(C)(C)O)c1O [Compound 5, Eurothiocin G] showed an IC50 [1] of 72.1 µM.
In the case of COc1cc(O)cc(C)c1C(=O)SC [Compound 6, Eurothiocin H], the “α-glucosidase inhibitory effect” value [1] is reported as “weak inhibitory effects” and the IC50 [1] is reported as > 100 µM.
For CSC(=O)c1c(C)cc2c(c1O)C[C@H](C(C)(C)O)O2 [Compound 7, eurothiocin A], the “α-glucosidase inhibitor (qualitative)” value (α-glucosidase) is given as “potential α-glucosidase inhibitor”.
